According to US8785429B2, “Dihydropyrrolonaphthyridinone compounds as inhibitors of JAK” (Takeda Pharmaceutical Company Limited, priority 2009, dated 2014):

Assays:
JAK3 = target: T1, JAK3 (Homo sapiens, UniProt P52333); assay: Assay for JAK3 Inhibition (phosphorylation of FAM-labeled substrate, Caliper LC-3000); assay type: biochemical; details: −log10(IC50), IC50 is the molar concentration at 50% inhibition; read-out: JAK3 pIC50 (converted)
T1 construct: purchased Invitrogen
T1 sequence (P52333 1-1124): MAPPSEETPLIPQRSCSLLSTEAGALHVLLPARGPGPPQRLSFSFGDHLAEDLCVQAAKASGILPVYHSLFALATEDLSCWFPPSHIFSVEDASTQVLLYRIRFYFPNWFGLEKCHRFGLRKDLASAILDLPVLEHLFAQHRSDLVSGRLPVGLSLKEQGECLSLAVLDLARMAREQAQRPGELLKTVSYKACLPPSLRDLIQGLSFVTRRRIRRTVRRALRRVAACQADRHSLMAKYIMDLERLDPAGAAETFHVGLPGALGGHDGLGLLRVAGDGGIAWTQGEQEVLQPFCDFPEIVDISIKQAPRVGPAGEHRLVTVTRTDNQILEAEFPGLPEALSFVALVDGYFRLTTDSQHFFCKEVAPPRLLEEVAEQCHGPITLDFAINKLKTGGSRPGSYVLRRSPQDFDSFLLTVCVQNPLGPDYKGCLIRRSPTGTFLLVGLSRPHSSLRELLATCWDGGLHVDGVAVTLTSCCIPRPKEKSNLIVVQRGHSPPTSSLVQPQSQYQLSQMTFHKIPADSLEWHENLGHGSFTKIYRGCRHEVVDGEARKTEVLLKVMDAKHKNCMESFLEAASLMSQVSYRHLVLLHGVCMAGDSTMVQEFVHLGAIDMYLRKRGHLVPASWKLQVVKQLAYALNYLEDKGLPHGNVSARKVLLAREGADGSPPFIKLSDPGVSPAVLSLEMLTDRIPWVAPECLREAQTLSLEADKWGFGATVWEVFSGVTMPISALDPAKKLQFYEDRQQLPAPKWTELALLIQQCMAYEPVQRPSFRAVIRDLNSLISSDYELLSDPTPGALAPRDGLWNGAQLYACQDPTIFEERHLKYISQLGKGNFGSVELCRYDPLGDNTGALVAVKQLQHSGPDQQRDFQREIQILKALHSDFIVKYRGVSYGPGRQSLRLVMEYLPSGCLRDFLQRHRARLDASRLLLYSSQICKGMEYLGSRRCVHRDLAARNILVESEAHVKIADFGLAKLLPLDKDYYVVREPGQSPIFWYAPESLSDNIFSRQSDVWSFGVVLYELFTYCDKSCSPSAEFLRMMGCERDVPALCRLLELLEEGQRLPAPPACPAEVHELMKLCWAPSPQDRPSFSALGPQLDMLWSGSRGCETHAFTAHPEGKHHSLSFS
Description: (§1) A compound's ability to inhibit JAK activity may be assessed using a variety of methods, including in vitro and in vivo assays. The following in vitro assays measure a test compound's ability to inhibit JAK2- and JAK3-mediated phosphorylation of FAM-labeled JAK-specific substrates.
(§2) Purified JAK2 and JAK3 proteins were purchased from Invitrogen. JAK2 and JAK3 inhibition is determined using a black 384-well-plate format in buffer containing 50 mM HEPES, 10 mM NaCl, 10 mM MgCl2, 0.2 mM EDTA, 0.01% EDA (Brij® 35), 1 mM DTT, 0.1 mg/mL BSA at pH 7.3. Each test compound is prepared in DMSO using 2-fold serial dilutions for 11 data points and is added to the buffer so that each dilution contains 3% DMSO.
(§3) To each well is added 2 μL of 3 μM 5FAM-KKKKEEIYFFFG-NH2 and 15 μM ATP (in buffer), 2 μL of diluted test compound (3% DMSO in medium), and 2 μL of 1.2 nM JAK3 in buffer. The reaction mixture is incubated at room temperature for 60 min and is quenched by adding 50 mM HEPES, 30 mM EDTA, and 0.1% Tx-100 (pH 7.3). To quantify the fluorescent-labeled substrate and product following reaction, the test plate is loaded on a Caliper LC-3000, which measures percent of conversion by microfluidic-based separation.
(§4) Corresponding IC50 values are calculated by non-linear curve fitting of the compound concentrations and percent of inhibition to the standard IC50 equation.

JAK2 = target: T2, JAK2 (Homo sapiens, UniProt O60674); assay: Assay for JAK2 Inhibition (phosphorylation of FAM-labeled substrate, Caliper LC-3000); assay type: biochemical; details: −log10(IC50), IC50 is the molar concentration at 50% inhibition; read-out: JAK2 pIC50 (converted)
T2 construct: purchased Invitrogen
T2 sequence (O60674 whole entry): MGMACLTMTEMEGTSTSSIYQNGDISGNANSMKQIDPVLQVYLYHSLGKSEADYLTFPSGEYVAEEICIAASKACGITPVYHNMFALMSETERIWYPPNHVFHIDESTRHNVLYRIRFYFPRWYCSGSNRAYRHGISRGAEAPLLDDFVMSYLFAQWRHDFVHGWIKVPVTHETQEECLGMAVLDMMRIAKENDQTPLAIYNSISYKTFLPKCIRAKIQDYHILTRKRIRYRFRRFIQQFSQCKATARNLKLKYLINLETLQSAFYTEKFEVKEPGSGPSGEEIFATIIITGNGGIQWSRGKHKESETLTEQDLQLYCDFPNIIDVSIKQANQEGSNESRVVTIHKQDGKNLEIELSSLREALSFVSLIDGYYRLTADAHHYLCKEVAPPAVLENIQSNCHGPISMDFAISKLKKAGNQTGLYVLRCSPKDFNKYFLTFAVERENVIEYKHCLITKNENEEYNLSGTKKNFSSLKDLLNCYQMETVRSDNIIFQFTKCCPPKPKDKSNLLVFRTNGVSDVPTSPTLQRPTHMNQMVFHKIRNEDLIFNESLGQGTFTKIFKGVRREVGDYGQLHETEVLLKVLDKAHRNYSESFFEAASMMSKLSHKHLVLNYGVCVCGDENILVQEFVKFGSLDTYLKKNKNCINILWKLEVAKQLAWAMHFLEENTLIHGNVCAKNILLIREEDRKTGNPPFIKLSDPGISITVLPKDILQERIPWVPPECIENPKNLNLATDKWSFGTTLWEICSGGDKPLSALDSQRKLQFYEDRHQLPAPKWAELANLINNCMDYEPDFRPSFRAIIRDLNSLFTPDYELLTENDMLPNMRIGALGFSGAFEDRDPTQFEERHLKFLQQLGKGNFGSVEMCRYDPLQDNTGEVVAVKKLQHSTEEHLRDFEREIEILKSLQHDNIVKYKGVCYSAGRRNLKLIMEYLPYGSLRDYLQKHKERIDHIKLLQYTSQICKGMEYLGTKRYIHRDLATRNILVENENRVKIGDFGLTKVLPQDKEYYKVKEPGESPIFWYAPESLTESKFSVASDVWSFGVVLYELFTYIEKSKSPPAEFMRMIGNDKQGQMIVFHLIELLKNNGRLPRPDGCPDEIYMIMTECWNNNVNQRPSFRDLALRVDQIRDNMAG
Description: as §1, §2
as §3, with “45” for “15”, “0.6” for “1.2”, “JAK2” for “JAK3”, “HEPeX,” for “HEPES,”
as §4

Compound	IC50 (JAK3)	IC50 (JAK2)
CC(C)[C@H](C(=O)N1CCS(=O)(=O)CC1)N1Cc2c(F)cnc3[nH]cc(c23)C1=O [Example 48, 4-{(1R)-1-[(1,1-dioxidothiomorpholin-4-yl)carbonyl]-2-methylpropyl}-6-fluoro-4,5-dihydropyrrolo[4,3,2-de][2,6]naphthyridin-3(1H)-one]	251 nM	5010 nM
CC(C)(C)[C@H](C(=O)NCCC#N)N1Cc2c(Cl)cnc3[nH]cc(c23)C1=O [Example 40, (R)-2-(6-chloro-3-oxopyrrolo[4,3,2-de][2,6]naphthyridin-4(1H,3H,5H)-yl)-N-(2-cyanoethyl)-3,3-dimethylbutanamide]	50.1 nM	1260 nM
CC[C@H](C(=O)NC(C)CO)N1Cc2ccnc3[nH]cc(c23)C1=O (stereo partly drawn) [Example 69, (2R)—N-(1-hydroxypropan-2-yl)-2-(3-oxopyrrolo[4,3,2-de][2,6]naphthyridin-4(1H,3H,5H)-yl)butanamide]	631 nM	10000 nM
O=C1c2ccnc3[nH]cc(c23)CN1C(CCO)C1CC1 (centres unmarked) [Example 11, 4-(1-cyclopropyl-3-hydroxypropyl)-3,4-dihydropyrrolo[4,3,2-de][2,6]naphthyridin-5(1H)-one]	316 nM	398 nM
CC[C@H](C(=O)NC1CCCC1)N1Cc2ccnc3[nH]cc(c23)C1=O [Example 57, (R)—N-cyclopentyl-2-(3-oxopyrrolo[4,3,2-de][2,6]naphthyridin-4(1H,3H,5H)-yl)butanamide]	79.4 nM	1580 nM
CC(C#N)NC(=O)[C@@H](C(C)C)N1Cc2c(F)cnc3[nH]cc(c23)C1=O (stereo partly drawn) [Example 75, (2R)—N-(1-cyanoethyl)-2-(6-fluoro-3-oxopyrrolo[4,3,2-de][2,6]naphthyridin-4(1H,3H,5H)-yl)-3-methylbutanamide]	31.6 nM	794 nM
CC(C)(C)[C@H](C(=O)N1CC(C#N)C1)N1Cc2ccnc3[nH]cc(c23)C1=O [Example 82, (R)-1-(3,3-dimethyl-2-(3-oxopyrrolo[4,3,2-de][2,6]naphthyridin-4(1H,3H,5H)-yl)butanoyl)azetidine-3-carbonitrile]	2 nM	39.8 nM
CC[C@@H](CC#N)NC(=O)[C@@H](C(C)C)N1Cc2c(Cl)cnc3[nH]cc(c23)C1=O [Example 37, (R)-2-(6-chloro-3-oxopyrrolo[4,3,2-de][2,6]naphthyridin-4(1H,3H,5H)-yl)-N—((S)-1-cyanobutan-2-yl)-3-methylbutanamide]	63.1 nM	1580 nM
CC(C)(O)[C@H](C(=O)NC1CCCC1)N1Cc2ccnc3[nH]cc(c23)C1=O [Example 29, (R)—N-cyclopentyl-3-hydroxy-3-methyl-2-(3-oxopyrrolo[4,3,2-de][2,6]naphthyridin-4(1H,3H,5H)-yl)butanamide]	158 nM	3160 nM
CC(C)[C@H](C(=O)N1CC(C)(C#N)C1)N1Cc2c(F)cnc3[nH]cc(c23)C1=O [Example 52, (R)-1-(2-(6-fluoro-3-oxopyrrolo[4,3,2-de][2,6]naphthyridin-4(1H,3H,5H)-yl)-3-methylbutanoyl)-3-methylazetidine-3-carbonitrile]	10 nM	200 nM
CC[C@H](C(=O)NCC1CC1)N1Cc2ccnc3[nH]cc(c23)C1=O [Example 66, (R)—N-(cyclopropylmethyl)-2-(3-oxopyrrolo[4,3,2-de][2,6]naphthyridin-4(1H,3H,5H)-yl)butanamide]	3980 nM	20000 nM
CC(C)[C@H](C(=O)N(C)CCS(C)(=O)=O)N1Cc2c(F)cnc3[nH]cc(c23)C1=O [Example 78, (R)-2-(6-fluoro-3-oxopyrrolo[4,3,2-de][2,6]naphthyridin-4(1H,3H,5H)-yl)-N,3-dimethyl-N-(2-(methylsulfonyl)ethyl)butanamide]	3980 nM	10000 nM
CC(C)[C@H](C(=O)N1CCC(C#N)CC1)N1Cc2c(Cl)cnc3[nH]cc(c23)C1=O [Example 34, (R)-1-(2-(6-chloro-3-oxopyrrolo[4,3,2-de][2,6]naphthyridin-4(1H,3H,5H)-yl)-3-methylbutanoyl)piperidine-4-carbonitrile]	15.8 nM	251 nM
CC(C)[C@H](C(=O)NC1CCS(=O)(=O)C1)N1Cc2c(F)cnc3[nH]cc(c23)C1=O (stereo partly drawn) [Example 45, (R)-2-(6-fluoro-3-oxopyrrolo[4,3,2-de][2,6]naphthyridin-4(1H,3H,5H)-yl)-3-methyl-N-(1,1-dioxidotetrahydrothien-3-yl)butanamide]	63.1 nM	2000 nM
CC[C@H](C(=O)N1CCC(N(C)C)C1)N1Cc2ccnc3[nH]cc(c23)C1=O (stereo partly drawn) [Example 59, 4-((2R)-1-(3-(dimethylamino)pyrrolidin-1-yl)-1-oxobutan-2-yl)-4,5-dihydropyrrolo[4,3,2-de][2,6]naphthyridin-3(1 H)-one]	6310 nM	20000 nM
O=C1c2ccnc3[nH]cc(c23)CN1CC1CCNC1 (centres unmarked) [Example 13, 4-(pyrrolidin-3-ylmethyl)-3,4-dihydropyrrolo[4,3,2-de][2,6]naphthyridine-5(1H)-one]	3160 nM	5010 nM
CC(C)[C@H](C(=O)N1C[C@@H](F)C[C@H]1C#N)N1Cc2c(Cl)cnc3[nH]cc(c23)C1=O [Example 86, (2S,4S)-1-((R)-2-(6-chloro-3-oxopyrrolo[4,3,2-de][2,6]naphthyridin-4(1H,3H,5H)-yl)-3-methylbutanoyl)-4-fluoropyrrolidine-2-carbonitrile]	25.1 nM	398 nM
CCC1(N2Cc3c[nH]c4nccc(c34)C2=O)CCN(c2ccncn2)CC1 [Example 17, 4-(4-ethyl-1-(pyrimidin-4-yl)piperidin-4-yl)-3,4-dihydropyrrolo[4,3,2-de][2,6]naphthyridin-5(1H)-one]	12.6 nM	5.01 nM
CC(C)[C@H](C(=O)N1CC(C#N)C1)N1Cc2c(F)cnc3[nH]cc(c23)C1=O [Example 42, (R)-1-(2-(6-fluoro-3-oxopyrrolo[4,3,2-de][2,6]naphthyridin-4(1H,3H,5H)-yl)-3-methylbutanoyl)azetidine-3-carbonitrile]	6.31 nM	126 nM
CC[C@H](C(=O)NCC1CCCO1)N1Cc2ccnc3[nH]cc(c23)C1=O (stereo partly drawn) [Example 74, (2R)-2-(3-oxopyrrolo[4,3,2-de][2,6]naphthyridin-4(1H,3H,5H)-yl)-N-((tetrahydrofuran-2-yl)methyl)butanamide]	794 nM	7940 nM
CC(C)[C@H](C(=O)N(C)CCC#N)N1Cc2c(F)cnc3[nH]cc(c23)C1=O [Example 43]	794 nM	12600 nM
CC(C)[C@H](C(=O)Nc1cccc(C#N)c1)N1Cc2c(Cl)cnc3[nH]cc(c23)C1=O [Example 36, (R)-2-(6-chloro-3-oxopyrrolo[4,3,2-de][2,6]naphthyridin-4(1H,3H,5H)-yl)-N-(3-cyanophenyl)-3-methylbutanamide]	126 nM	1000 nM
